Data published in patent publication US20030154517A1, “Efficiency agrobacterium-mediated wheat transformation method” (priority 2001, published 2003).
Values joined by “and” are separate entries in the source; they are usually repeats but may differ in a detail not shown here. Identical values can stand only once. Like-named read-outs stand apart in the source and are kept apart here.

Tests used:
wheat callus cultures = conditions: for 1 shoot/callus / 2 shoots/callus / 3 shoots/callus / 4 shoots/callus / Regenerable callus, # / Regenerable callus, % / Shoots, #: no glyphosate; for Shoots, #: two experiments
Description: Five treatments were done: 1) control (0.1 μM Cu as in MS medium) without additional copper; 2) 2 μM copper, applied at delay and selection for 2 weeks total; 3) 2 μM Cu at 1st regeneration for 2 weeks; 4) 2 μM Cu at 2nd regeneration for 2 or more weeks; and 5) 2 μM Cu constantly present at all of these stages.

[1] = system: immature embryos of wheat; assay: Agrobacterium-mediated wheat transformation, nptII (G418/kanamycin) selection (transformation efficiency); format: cell-based, Triticum aestivum L
Text: Immature embryos of wheat (Triticum aestivum L) cv Bobwhite were isolated from the immature caryopsis (wheat spikelets) 12-15 days after pollination, and cultured on CM4C (Table 2) for 1-8 days, most typically for 4-6. The embryos without embryogenic callus were selected for Agrobacterium inoculation.
A disarmed Agrobacterium strain C58 (ABI) harboring a binary vector was used for all the experiments. […] The Agrobacterium cells were resuspended in the inoculation medium and the density was adjusted to an OD660 of 1. […] An equal amount of the Agrobacterium cell suspension was added such that the final concentration of Agrobacterium cells was an OD660 of 0.5. In most experiments, pluronic F68 was added to the inoculation mixture at a final concentration of 0.01%. The ratio between the Agrobacterium and immature embryos (IEs) was about 10 mL: 20-200 IEs. The conditions for inoculation were temperatures from about 23° C.-26° C. with a duration from about 5-60 minutes.
After the inoculation period, the remaining Agrobacterium cells were removed from the explants by using the in-house vacuum equipment. A piece of sterile Whatman No. 1 filter paper (to fit the size of the petri plate) was placed in each of 60×15 or 60×20 mm petri dishes without additional liquid or agar-supplemented media. Two hundred microliters of sterile water was placed in the middle of the filter paper. After 2-3 minutes, the inoculated immature embryos were placed in the plates. Usually, 20-50 explants are grouped as one stack (about 1 cm in size and 60-80 mg/stack), with 4-5 stacks on each plate. The plates were immediately parafilmed and then co-cultivated in the dark at 24° C.-26° C. for 2-3 days.
For nptII selection, immature embryos were isolated, precultured, inoculated, and co-cultured as previously described. After the 3-day co-culture, embryos were transferred to delay culture (solid CM4C2D) media (CM4C media as in Table 2 with 2 mg/L 2,4-D) with 500 mg/L carbenicillin for 7 days in the dark at 25° C. Selection was done in liquid CM4C media (as in Table 2 without the Phytagel) with 100 mg/L carbenicillin and 20 mg/L G418 on a support for 7 days in the dark followed by 7 days in the light (16 hr photoperiod), at 25° C. The calli were then transferred to liquid MMS0.2C media (as in Table 2 without the gelling agent) with 100 mg/L carbenicillin and 25 mg/L G418 on a support for 2 weeks at 25° C. with a 16 hr photoperiod. After 2 weeks, the calli were transferred to liquid MMSOC media (as in Table 2 without the gelling agent) with 100 mg/L carbenicillin and 25 mg/L G418 on a support for 2 to 4 weeks at 25° C. with a 16 hr photoperiod. Plantlets were transferred to solid MMSOC media with 100 mg/L carbenicillin and 25 mg/L G418 in sundae cups for 1 to 4 weeks at 25° C. with a 16 hr photoperiod.

[2] = system: immature embryos of wheat (Triticum aestivum L) cv Bobwhite; assay: Agrobacterium-mediated wheat transformation, glyphosate selection (transformation efficiency); format: cell-based; conditions: for Over all % TE / Total Ind. Events: six experiments; for Transgenic #: Expt. 309 and Expt. 314
[3] = 2 μM Cu at 2nd Reg. (MMS0C), 2 w.
[4] = Table 16: 250 μM CuSO4 in MMS0C
[5] = Table 16: 500 μM CuSO4 in MMS0C
[6] = Table 16: 750 μM CuSO4 in MMS0C
[7] = Table 16: 1000 μM CuSO4 in MMS0C
[8] = Table 16: 1500 μM CuSO4 in MMS0C
[9] = Table 16: 2000 μM CuSO4 in MMS0C
[10] = Table 16: 3000 μM CuSO4 in MMS0C

For `O=S(=O)([O-])[O-].[Cu+2]` [CuSO4, copper sulfate], the 1 shoot/callus (wheat callus cultures; 2 μM Cu at 1st Reg., 2 w.) was 11.8, the 2 shoots/callus (wheat callus cultures; 2 μM Cu at 1st Reg., 2 w.) was 9.3 and the 3 shoots/callus (wheat callus cultures; 2 μM Cu at 1st Reg., 2 w.) was 3.3. For the same compound, the 4 shoots/callus (wheat callus cultures; 2 μM Cu at 1st Reg., 2 w.) was 1.3, the “Regenerable callus, #” value (wheat callus cultures; 2 μM Cu at 1st Reg., 2 w.) was 30.5 and the “Regenerable callus, %” value (wheat callus cultures; 2 μM Cu at 1st Reg., 2 w.) was 61%. For the same compound, the “Shoots, #” value (wheat callus cultures; 2 μM Cu at 1st Reg., 2 w.) was 44, the “effect on regeneration” value (wheat callus cultures; 2 μM Cu at 1st regeneration stage) was “very little or no effect” and the “Regenerable callus, #” value (wheat callus cultures; [3]) was 40. For the same compound, the “Regenerable callus, %” value (wheat callus cultures; [3]) was 80%, the “Shoots, #” value (wheat callus cultures; [3]) was 80.5 and the 2 shoots/callus (wheat callus cultures; 2 μM Cu at 2nd Reg., 2 w.) was 12.5. For the same compound, the 3 shoots/callus (wheat callus cultures; 2 μM Cu at 2nd Reg., 2 w.) was 9.8, the 4 shoots/callus (wheat callus cultures; 2 μM Cu at 2nd Reg., 2 w.) was 4.3 and the “effect on regeneration” value (wheat callus cultures; 2 μM Cu at 2nd regeneration stage) was “most significant increase in regeneration”. For the same compound, the 1 shoot/callus (wheat callus cultures; 2 μM Cu at Delay/Sel., 2 w.) was 14.3, the 2 shoots/callus (wheat callus cultures; 2 μM Cu at Delay/Sel., 2 w.) was 8.5 and the 3 shoots/callus (wheat callus cultures; 2 μM Cu at Delay/Sel., 2 w.) was 7.8. The 4 shoots/callus (wheat callus cultures; 2 μM Cu at Delay/Sel., 2 w.) was 0.5, the “Regenerable callus, #” value (wheat callus cultures; 2 μM Cu at Delay/Sel., 2 w.) was 35.6 and the “Regenerable callus, %” value (wheat callus cultures; 2 μM Cu at Delay/Sel., 2 w.) was 71%. The “Shoots, #” value (wheat callus cultures; 2 μM Cu at Delay/Sel., 2 w.) was 57.5, the 1 shoot/callus (wheat callus cultures; 2 μM Cu at all stages, 6 w.) was 9 and the 2 shoots/callus (wheat callus cultures; 2 μM Cu at all stages, 6 w.) was 11.5. The 3 shoots/callus (wheat callus cultures; 2 μM Cu at all stages, 6 w.) was 2.5, the 4 shoots/callus (wheat callus cultures; 2 μM Cu at all stages, 6 w.) was 0.5 and the “Regenerable callus, #” value (wheat callus cultures; 2 μM Cu at all stages, 6 w.) was 30.5. The “Regenerable callus, %” value (wheat callus cultures; 2 μM Cu at all stages, 6 w.) was 61%, the “Shoots, #” value (wheat callus cultures; 2 μM Cu at all stages, 6 w.) was 37 and the “effect on regeneration” value (wheat callus cultures; 2 μM Cu at delay and selection stage) was “Some improvement”. For the same compound, the “effect on regeneration” value (wheat callus cultures; 2 μM Cu present at all stages) was “No improvement”, the Independent transgenic events/explants [1] was 37/220 and 63/228 and 48/211 and 46/275 and 53/225 and the “% TE” value ([1]; 2 μM copper sulfate in MMSOC, nptII liquid system, per experiment and Totals, listed as Copper sulfate) was 3.72% and 2.16% and 0.57% and 9.43% and 9.14% and 4.51% and 1.56%. For the same compound, the “% TE” value ([1]; 2 μM copper sulfate in MMSOC, nptII liquid system, per experiment and Totals, listed as copper) was 4.5%, the “% TE” value ([1]; 20 μM copper sulfate in MMSOC, nptII liquid system, per experiment and Totals) was 7.2% and the “% TE” value ([1]; Table 19: compound at 2 μM in second regeneration stage (MMSOC media)) was 16.8%. For the same compound, the “% TE” value ([1]; Table 19: compound at 20 μM in second regeneration stage (MMSOC media)) was 27.6% and 30.6% and 22.7% and 16.7% and 23.6%, the “% TE” value ([1]; Table 19: compound at 20 μM in second regeneration stage (MMSOC media), listed as copper sulfate) was 27.6% and 16.7% and 22.7% and the “improvement in TE (×)” value ([2]; 1.0 μM copper sulfate in MMS0C, experiment 309) was 2.5 ×. The “improvement in TE (×)” value ([2]; 1.0 μM copper sulfate in MMS0C, experiment 314) was ~4 ×, the “improvement in TE (×)” value ([2]; 2.0 μM copper sulfate in MMS0C, experiment 309) was 3.5 × and the “improvement in TE (×)” value ([2]; 2.0 μM copper sulfate in MMS0C, experiment 314) was ~10 ×. For the same compound, the “TE %” value ([2]; CuSO4 2 μM, initial 14 days (2 weeks) of last regeneration stage (MMS0C), per experiment and Total/average of twelve, listed as Cu) was 16.6%, the “% TE” value ([2]; Table 14: 2 μM Cu in MMS0C, per experiment and Total, listed as Cu) was 11.4% and 15.1% and 9.4% and the “% TE” value ([2]; Table 14: 20 μM Cu in MMS0C, per experiment and Total, listed as Cu) was 17.4% and 20.3% and 15.9%. For the same compound, the “Over all % TE” value ([2]; Table 15: 20 μM CuSO4 in MMS0C) was 17.6%, the “Total Ind. Events” value ([2]; Table 15: 20 μM CuSO4 in MMS0C) was 103 and the “% TE” value ([2]; Table 15: 40 μM CuSO4 in MMS0C, experiments 292, 293, 295, 296, 297, 301) was 14.0% and 13.9% and 22.6% and 21.8% and 20.7% and 19.6%. For the same compound, the “Over all % TE” value ([2]; Table 15: 40 μM CuSO4 in MMS0C) was 18.6%, the “Total Ind. Events” value ([2]; Table 15: 40 μM CuSO4 in MMS0C) was 109 and the “Over all % TE” value ([2]; Table 15: 80 μM CuSO4 in MMS0C) was 16.6%. The “Total Ind. Events” value ([2]; Table 15: 80 μM CuSO4 in MMS0C) was 98, the “% TE” value ([2]; Table 16: 40 μM CuSO4 in MMS0C) was 17.5% and the Transgenics ([2]; Table 16: 40 μM CuSO4 in MMS0C) was 14. The “% TE” value [2, 4] was 20%, the Transgenics [2, 4] was 16 and the “% TE” value [2, 5] was 24% and 23.75%. For the same compound, the Transgenics [2, 5] was 19, the “% TE” value [2, 6] was 15.0% and the Transgenics [2, 6] was 12. For the same compound, the “% TE” value [2, 7] was 10.0%, the Transgenics [2, 7] was 8 and the “% TE” value [2, 8] was 13.8%. The Transgenics [2, 8] was 11, the “% TE” value [2, 9] was 11.1% and the Transgenics [2, 9] was 4. The “% TE” value [2, 10] was 5.6%, the Transgenics [2, 10] was 2 and the “% TE” value ([2]; Table 17: 0.25 μM CuSO4 in MMS0C, both experiments) was 4.8%. For the same compound, the “Transgenic #” value ([2]; Table 17: 0.5 μM CuSO4 in MMS0C) was 4 and 5, the “% TE” value ([2]; Table 17: 0.5 μM CuSO4 in MMS0C, both experiments) was 4.3% and the “Transgenic #” value ([2]; Table 17: 1.0 μM CuSO4 in MMS0C) was 10 and 11. For the same compound, the “% TE” value ([2]; Table 17: 1.0 μM CuSO4 in MMS0C, both experiments) was 10.1%, the “% TE” value ([2]; Table 17: 2.0 μM CuSO4 in MMS0C, both experiments) was 20.7% and the “TE, average” value ([2]; copper sulfate from 20 to 80 μM inclusive in MMS0C, Table 15) was 17.6%.
